Like-named read-outs stand apart in the source and are kept apart here.
How the values were obtained:
[1] = PT of coded and various agents, Example 6; assay type: biochemical
Description: (§1) A variety of agents were coded and evaluated under a code designation. Among these compounds, thiouracil, mercaptosuccinic acid, thiosemicarbazide, phenothiazine and sodium thiosulphate were included, so as to compare sodium bisulphite with certain compounds mentioned in USP 4,148,855.
(§2) After determination of PT and PTT values, the coded compounds were decoded.
(§3) The results are shown in Table V, where mean values of 5 replications in each case are reported. […] This procedure was repeated with some additional compounds on two different days using a different control on each day.

[2] = test system: human, rabbit and rat plasma; experiment: PT (prothrombin time) in plasma in vitro, Example 3; assay type: biochemical; details: for PT (seconds) Exp. 1 A / PT (seconds) Exp.2 A: active agent 0.5/ml, control; for prolongation of PT: 0.5 mg/ml, human, rabbit and rat plasma in vitro, dose-related
Description: (§4) Sodium, potassium and ammonium bisulphites are found to prolong PT and PTT in a dose-related fashion.
(§5) The evaluation procedure used is that described in "Human Blood Coagulation, Haemostasis and Thrombosis", edited by Rosemary Biggs, published by Blackwell Scientific Publications, Oxford, England (2nd Edition), pages 670-705, 1976.

[3] = test system: human, rabbit and rat plasma; experiment: PTT (partial thromboplastin time) in plasma in vitro, Example 3; assay type: biochemical; details: for PTT (seconds) Exp. 1 A / PTT (seconds) Exp. 2 A: active agent 0.5/ml, control; for prolongation of PTT: 0.5 mg/ml, human, rabbit and rat plasma in vitro, dose-related
Description: as §4, §5

[4] = PTT of coded and various agents, Example 6; assay type: biochemical; details: for PTT: Table V, coded agents 0.5 mg/ml, Control 43.38
Description: as §1, §2, §3

blood coagulation time = details: 10 mM; Kikugawa; cited from earlier work
[5] = rabbits; cited from earlier work
[6] = test system: platelet-fibrinogen preparations; details: 10 to 50 mM; Chao; cited from earlier work
dog plasma = details: 10 mM, Elias; cited from earlier work
[7] = test system: celite-fibrinogen suspension; details: Chao, cited from earlier work
thrombin = details: Elias; cited from earlier work
[8] = coded compounds after decoding, in vitro
[9] = Table V, coded agents 0.5 mg/ml, Control 12.92

Question: For Ammonium sulphite, which “PT” value [1] is on record?
Answer: 16.08 s

Question: What about the “PT (seconds) Exp. 1 A” value ([2]; Test sequence A) of the same molecule?
Answer: 14.7 s

Question: What about the “PT (seconds) Exp.2 A” value ([2]; Test sequence A) of the same molecule?
Answer: 16.9 s

Question: And the “PTT (seconds) Exp. 1 A” value ([3]; Test sequence A)?
Answer: 56.5 s

Question: And the “PTT (seconds) Exp. 2 A” value ([3]; Test sequence A)?
Answer: 65.2 s

Question: For `O=S([O-])S(=O)(=O)[O-].[K+].[K+]` [Potassium metabisulphite], which “PT (seconds) Exp.2 A” value ([2]; Test sequence A) is on record?
Answer: 22.0 s

Question: What does the source list for potassium bisulphite?
Answer: prolongation of PT [2]: significantly prolong; prolongation of PTT [3]: significantly prolong

Question: Which results are given for ammonium bisulphite?
Answer: prolongation of PT [2]: significantly prolong; prolongation of PTT [3]: significantly prolong

Question: Which “PT” value [1] does the source give for “Sodium thiosulphate [SI6, reference compound]” here?
Answer: 13.5 s

Question: With `O=S(=O)(O)CO` [SO3, Sodium formaldehyde bisulphite, reference compound] as the molecule, how does the “effect on PT values” [1, 8] read?
Answer: effected in increasing PT and PTT values

Question: And the “effect on PTT values” [4, 8]?
Answer: effected in increasing PT and PTT values

Question: For “Dihydroxymalcic acid 2 H2O [Solution A3, reference compound]”, which “PT” value [1, 9] is on record?
Answer: 14.95 s

Question: And the “PTT” value [4]?
Answer: 53.00 s

Question: Which results are given for sodium bisulphite/sulphite?
Answer: effect on blood coagulation time (blood coagulation time): no effect; LD50 [5]: 65 mg/kg

Question: Which “PTT (seconds) Exp. 2 A” value ([3]; Test sequence A) does the source give for `O=S([O-])S(=O)(=O)[O-].[Na+].[Na+]` [Sodium metabisulphite] here?
Answer: 80.3 s

Question: Which “PT” value [1] does the source give for Sodium sulphite here?
Answer: 16.38 s

Question: What about the “PT” value [1, 9] of the same molecule?
Answer: 16.14 s

Question: What about the “effect on the first wave of platelet-fibrinogen preparations” value [6] of the same molecule?
Answer: no effect

Question: What about the “increase of thrombin time” value (dog plasma) of the same molecule?
Answer: about 38%

Question: What about the “PT (seconds) Exp. 1 A” value ([2]; Test sequence A) of the same molecule?
Answer: 16.2 s

Question: What about the “PT (seconds) Exp.2 A” value ([2]; Test sequence A) of the same molecule?
Answer: 17.7 s

Question: What about the “PT (seconds) Exp. 1 A” value ([2]; Test sequence B) of the same molecule?
Answer: 16.8 s

Question: And the “PT (seconds) Exp.2 A” value ([2]; Test sequence B)?
Answer: 17.7 s

Question: And the “inhibition of thrombin-induced light transmission increase (LTI)” value ([7]; 10 mM)?
Answer: partial inhibition

Question: What about the “inhibition of thrombin-induced light transmission increase (LTI)” value ([7]; 50 mM) of the same molecule?
Answer: complete inhibition

Question: What about the “PTT (seconds) Exp. 1 A” value ([3]; Test sequence A) of the same molecule?
Answer: 66.1 s

Question: And the “PTT (seconds) Exp. 2 A” value ([3]; Test sequence A)?
Answer: 80.7 s

Question: And the “PTT (seconds) Exp. 1 A” value ([3]; Test sequence B)?
Answer: 74.8 s

Question: What about the “PTT (seconds) Exp. 2 A” value ([3]; Test sequence B) of the same molecule?
Answer: 82.1 s

Question: What about the “inhibitory effect on TAME esterolytic activity of thrombin” value (thrombin) of the same molecule?
Answer: No inhibitory effect

Question: What about the “PTT” value [4] of the same molecule?
Answer: 64.62 s
